Biological target: T1, human M4 muscarinic acetylcholine receptor (Homo sapiens, UniProt P08173)
T1 construct: expressed in transfected cells; host or cells: CHO-K1
T1 sequence (P08173 1-479): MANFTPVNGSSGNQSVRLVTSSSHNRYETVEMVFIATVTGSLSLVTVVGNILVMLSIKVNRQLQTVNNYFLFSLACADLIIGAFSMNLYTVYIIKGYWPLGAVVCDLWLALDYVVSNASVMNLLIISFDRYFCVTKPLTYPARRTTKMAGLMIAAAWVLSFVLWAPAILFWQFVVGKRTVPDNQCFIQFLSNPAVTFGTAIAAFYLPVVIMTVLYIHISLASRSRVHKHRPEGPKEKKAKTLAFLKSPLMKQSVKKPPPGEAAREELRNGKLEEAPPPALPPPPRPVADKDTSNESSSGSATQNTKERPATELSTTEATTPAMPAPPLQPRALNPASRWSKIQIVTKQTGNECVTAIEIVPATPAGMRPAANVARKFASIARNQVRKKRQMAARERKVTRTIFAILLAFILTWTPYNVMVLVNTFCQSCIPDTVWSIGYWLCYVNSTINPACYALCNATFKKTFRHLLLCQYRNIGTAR
Assay: human FLIPR-based M4 PAM assay, CHO-K1 cells stably transfected with human M4 receptor and chimeric G-protein Gαqi5
Format: cell-based
Conditions: inflection point (IP) of dose response curve; acetylcholine added at 20% of maximum response; CHO-K1 human M4/Gαqi5, FLIPR Tetra
Procedure, shortened: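 The FLIPR read recorded 4 min after compound was added across a concentration range, then 3.5 min after acetylcholine giving 20% of its maximal response, with an occasional extra EC70 addition. Cells were dye-loaded for about 1 h at 37 °C. Potency is the curve inflection point from a four-parameter logistic fit.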

SMILES	EC50
Cc1cc(C(=O)NC2C3CC2C3)nnc1N1CCC(Oc2ccc3[nH]ncc3c2)CC1 (stereo not drawn) [Example 124, N-bicyclo[1.1.1]pent-2-yl-6-[4-(1H-indazol-5-yloxy)piperidin-1-yl]-5-methylpyridazine-3-carboxamide]	101 nM
COc1ncc(OC2CCN(c3nnc(C(=O)NCc4ccncc4)cc3C)CC2)cc1F [Example 140, 6-{4-[(5-fluoro-6-methoxypyridin-3-yl)oxy]piperidin-1-yl}-5-methyl-N-(pyridin-4-ylmethyl)pyridazine-3-carboxamide]	179 nM
Cc1c(Cl)nc(CO)nc1N1CCC(Oc2cccc(C#N)c2)CC1 [Example 51, 3-((1-(6-chloro-2-(hydroxymethyl)-5-methylpyrimidin-4-yl)piperidin-4-yl)oxy)benzonitrile]	51 nM
Cc1cc(C(=O)NCc2ccncc2)c(N)nc1N1CCC(Oc2cccc(C#N)c2)CC1 [Example 266, 2-Amino-6-(4-(3-cyanophenoxy)piperidin-1-yl)-5-methyl-N-(pyridin-4-ylmethyl)nicotinamide]	4290 nM
COc1ccc(OC2CCN(c3nnc(C(=O)NC4(C)CCCC4)cc3C)CC2)cn1 [Example 185, 6-{4-[(6-methoxypyridin-3-yl)oxy]piperidin-1-yl}-5-methyl-N-(1-methylcyclopentyl)pyridazine-3-carboxamide]	1040 nM
COc1ccc(OC2CCN(c3ncnc(N)c3C)CC2)cn1 [Example 89, 6-(4-((6-methoxypyridin-3-yl)oxy)piperidin-1-yl)-5-methylpyrimidin-4-amine]	1610 nM
C=Cc1ncnc(N2CCC(Oc3ccc(OC)nc3)CC2)c1C [Example 243, 4-(4-((6-methoxypyridin-3-yl)oxy)piperidin-1-yl)-5-methyl-6-vinylpyrimidine]	342 nM
COc1ccc(OC2CCN(c3nnc(C(=O)NC4CCc5cccnc5C4)cc3C)CC2)cn1 (stereo not drawn) [Example 136, 6-{4-[(6-methoxypyridin-3-yl)oxy]piperidin-1-yl}-5-methyl-N-(5,6,7,8-tetrahydroquinolin-7-yl)pyridazine-3-carboxamide]	173 nM
COc1ccc(OC2CCN(c3nc(C(=O)NCc4ccncc4)nc(Cl)c3C)CC2)cn1 [Example 207, 4-chloro-6-(4-((6-methoxypyridin-3-yl)oxy)piperidin-1-yl)-5-methyl-N-(pyridin-4-ylmethyl)pyrimidine-2-carboxamide]	224 nM
Cc1cncc(-c2ncnc(N3CCC(Oc4cccc(C#N)c4)CC3)c2C)c1 [Example 247, 3-((1-(5-methyl-6-(5-methylpyridin-3-yl)pyrimidin-4-yl)piperidin-4-yl)oxy)benzonitrile]	1130 nM
COc1ccc(OC2CCN(c3nnc(C(=O)NCc4ncn[nH]4)cc3C)CC2)cn1 [Example 167, 6-{4-[(6-methoxypyridin-3-yl)oxy]piperidin-1-yl}-5-methyl-N-(1H-1,2,4-triazol-5-ylmethyl)pyridazine-3-carboxamide]	417 nM
COc1ccc(OC2CCN(c3nnc(-c4noc(C)n4)cc3C)CC2)cn1 [Example 264, 3-(6-(4-((6-Methoxypyridin-3-yl)oxy)piperidin-1-yl)-5-methylpyridazin-3-yl)-5-methyl-1,2,4-oxadiazole]	399 nM
COc1ccc(OC2CCN(c3nnc(C(=O)N[C@@H]4CCc5ncccc5C4)cc3C)CC2)cn1 [Example 141A, (R)-6-(4-((6-methoxypyridin-3-yl)oxy)piperidin-1-yl)-5-methyl-N-(5,6,7,8-tetrahydroquinolin-6-yl)pyridazine-3-carboxamide]	57 nM
COc1ccc(OC2CCN(c3nc(C(=O)NCc4cnsc4)nc(Cl)c3C)CC2)cn1 [Example 225, 4-chloro-N-(isothiazol-4-ylmethyl)-6-(4-((6-methoxypyridin-3-yl)oxy)piperidin-1-yl)-5-methylpyrimidine-2-carboxamide]	321 nM
COc1ccc(OC2CCN(c3nc(C)nc(N)c3C)CC2)cn1 [Example 87, 6-(4-((6-methoxypyridin-3-yl)oxy)piperidin-1-yl)-2,5-dimethylpyrimidin-4-amine]	1500 nM
COc1ccc(OC2CCN(c3nnc(C(=O)NCc4cccc(C#N)c4)cc3C)CC2)cn1 [Example 153, N-(3-cyanobenzyl)-6-{4-[(6-methoxypyridin-3-yl)oxy]piperidin-1-yl}-5-methylpyridazine-3-carboxamide]	261 nM
COC(=O)c1cc(C)c(N2CCC(Oc3ccc(OC)cc3)CC2)nn1 [Example 10, methyl 6-(4-(4-methoxyphenoxy)piperidin-1-yl)-5-methylpyridazine-3-carboxylate]	82 nM

SMILES	EC50
Cc1cc(C(=O)NCc2ccncc2)nnc1N1CCC(Oc2cnn(C)c2)CC1 [Example 22, 5-methyl-6-(4-((1-methyl-1H-pyrazol-4-yl)oxy)piperidin-1-yl)-N-(pyridin-4-ylmethyl)pyridazine-3-carboxamide]	74 nM
COc1ccc([C@H](C)NC(=O)c2cc(C)c(N3CCC(Oc4ccc(OC)nc4)CC3)nn2)cc1 [Example 182, N-[(1S)-1-(4-methoxyphenyl)ethyl]-6-{4-[(6-methoxypyridin-3-yl)oxy]piperidin-1-yl}-5-methylpyridazine-3-carboxamide]	893 nM
Cc1c(Cl)nc(CO)nc1N1CCC(Oc2ccc3c(c2)C(=O)CCO3)CC1 [Example 21, 6-((1-(6-chloro-2-(hydroxymethyl)-5-methylpyrimidin-4-yl)piperidin-4-yl)oxy)chroman-4-one]	57 nM
COc1ccc(OC2CCN(c3nnc(C(=O)NC4CCCC4)cc3C)CC2)cn1 [Example 169, N-cyclopentyl-6-{4-[(6-methoxypyridin-3-yl)oxy]piperidin-1-yl}-5-methylpyridazine-3-carboxamide]	459 nM
Cc1cc(C(=O)NCc2ccncc2)nnc1N1CCC(Oc2cccc(C#N)c2)CC1 [Example 106, 6-(4-(3-Cyanophenoxy)piperidin-1-yl)-5-methyl-N-(pyridin-4-ylmethyl)pyridazine-3-carboxamide]	33 nM
Cc1c(Cl)nc(CO)nc1N1CCC(Oc2ccc3c(c2)NC(=O)CC3)CC1 [Example 30, 7-((1-(6-chloro-2-(hydroxymethyl)-5-methylpyrimidin-4-yl)piperidin-4-yl)oxy)-3,4-dihydroquinolin-2(1H)-one]	140 nM
Cc1cc(C(=O)NC2C3CC2C3)nnc1N1CCC(Oc2cccc(C#N)c2)CC1 (stereo not drawn) [Example 117, N-bicyclo[1.1.1]pent-2-yl-6-[4-(3-cyanophenoxy)piperidin-1-yl]-5-methylpyridazine-3-carboxamide]	85 nM
COCc1nc(Cl)c(C)c(N2CCC(Oc3ccc(OC)cc3)CC2)n1 [Example 61, 4-chloro-2-(methoxymethyl)-6-(4-(4-methoxyphenoxy)piperidin-1-yl)-5-methylpyrimidine]	84 nM
Cc1c(Cl)nc(CO)nc1N1CCC(Oc2ccc3c(c2)C(=O)OC3)CC1 [Example 24, 6-((1-(6-chloro-2-(hydroxymethyl)-5-methylpyrimidin-4-yl)piperidin-4-yl)oxy)isobenzofuran-1(3H)-one]	77 nM
COc1ccc(OC2CCN(c3nc(C(=O)NNC(C)C)nc(Cl)c3C)CC2)cn1 [Example 209, 4-chloro-N′-isopropyl-6-(4-((6-methoxypyridin-3-yl)oxy)piperidin-1-yl)-5-methylpyrimidine-2-carbohydrazide]	533 nM
Cc1c(-c2ccc3c(=O)nc[nH]c3c2)ncnc1N1CCC(Oc2cccc(C#N)c2)CC1 [Example 253, 3-((1-(5-methyl-6-(4-oxo-1,4-dihydroquinazolin-7-yl)pyrimidin-4-yl)piperidin-4-yl)oxy)benzonitrile]	1740 nM
Cc1c(Cl)nc(CO)nc1N1CCC(Oc2ccc3c(c2)C(=O)CC3)CC1 [Example 26, 6-((1-(6-chloro-2-(hdyroxymethyl)-5-methylpyrimidin-4-yl)piperidin-4-yl)oxy)-2,3-dihydro-1H-inden-1-one]	85 nM
COC(=O)c1cc(C)c(N2CCC(Oc3ccc(OC)nc3)CC2)nn1 [Example 70, methyl 6-(4-((6-methoxypyridin-3-yl)oxy)piperidin-1-yl)-5-methylpyridazine-3-carboxylate]	129 nM
COc1ccc(OC2CCN(c3nnc(C(=O)N4CCc5snc(-c6cccnc6)c5C4)cc3C)CC2)cn1 [Example 203, 5-[(6-{4-[(6-methoxypyridin-3-yl)oxy]piperidin-1-yl}-5-methylpyridazin-3-yl)carbonyl]-3-pyridin-3-yl-4,5,6,7-tetrahydroisothiazolo[4,5-c]pyridine]	504 nM
COc1ccc(OC2CCN(c3nnc(C(=O)Nc4ccc(CC(F)(F)F)cc4)cc3C)CC2)cn1 [Example 190, 6-{4-[(6-methoxypyridin-3-yl)oxy]piperidin-1-yl}-5-methyl-N-[4-(2,2,2-trifluoroethyl)phenyl]pyridazine-3-carboxamide]	2000 nM
Cc1cc(C(=O)N2CCc3snc(-c4cccnc4)c3C2)nnc1N1CCC(Oc2cccc(C#N)c2)CC1 [Example 204, 3-[(1-{4-methyl-6-[(3-pyridin-3-yl-6,7-dihydroisothiazolo[4,5-c]pyridin-5(4H)-yl)carbonyl]pyridazin-3-yl}piperidin-4-yl)oxy]benzonitrile]	1150 nM

— patent US11319298B2 (Merck Sharp & Dohme Corp., priority 2016, dated 2022)
